Assay results taken from patent EP0306826A1, “N-(substituted alkylidene)fused bicycloalkylidene and hetero-alkylidene quinolinamines, a process for their preparation and their use as medicaments” (HOECHST-ROUSSEL PHARMACEUTICALS INCORPORATED, priority 1987, dated 1989).

Key:
[1] = target: acetylcholinesterase (Homo sapiens, UniProt P22303); assay: Acetylcholinesterase Inhibition Assay (photometric method of Ellman et al.); assay type: biochemical
[2] = system: mice; assay: Dark Avoidance Assay (reversal of scopolamine induced memory deficit); assay type: in vivo
Description: In this assay mice are tested for their ability to remember an unpleasant stimulus for a period of 24 hours. A mouse is placed in a chamber that contains a dark compartment; a strong incandescent light drives it to the dark compartment, where an electric shock is administered through metal plates on the floor. The animal is removed from the testing apparatus and tested again, 24 hours later, for the ability to remember the electric shock.
If scopolamine, an anticholinergic that is known to cause memory impairment, is administered before an animal's initial exposure to the test chamber, the animal re-enters the dark compartment shortly after being placed in the test chamber 24 hours later. This effect of scopolamine is blocked by an active test compound, resulting in a greater interval before re-entry into the dark compartment.
The test results are expressed as the percent of a group of animals in which the effect of scopolamine is blocked, as manifested by an increased interval between being placed in the test chamber and re-entering the dark compartment.

Sequence of acetylcholinesterase (P22303 32-614): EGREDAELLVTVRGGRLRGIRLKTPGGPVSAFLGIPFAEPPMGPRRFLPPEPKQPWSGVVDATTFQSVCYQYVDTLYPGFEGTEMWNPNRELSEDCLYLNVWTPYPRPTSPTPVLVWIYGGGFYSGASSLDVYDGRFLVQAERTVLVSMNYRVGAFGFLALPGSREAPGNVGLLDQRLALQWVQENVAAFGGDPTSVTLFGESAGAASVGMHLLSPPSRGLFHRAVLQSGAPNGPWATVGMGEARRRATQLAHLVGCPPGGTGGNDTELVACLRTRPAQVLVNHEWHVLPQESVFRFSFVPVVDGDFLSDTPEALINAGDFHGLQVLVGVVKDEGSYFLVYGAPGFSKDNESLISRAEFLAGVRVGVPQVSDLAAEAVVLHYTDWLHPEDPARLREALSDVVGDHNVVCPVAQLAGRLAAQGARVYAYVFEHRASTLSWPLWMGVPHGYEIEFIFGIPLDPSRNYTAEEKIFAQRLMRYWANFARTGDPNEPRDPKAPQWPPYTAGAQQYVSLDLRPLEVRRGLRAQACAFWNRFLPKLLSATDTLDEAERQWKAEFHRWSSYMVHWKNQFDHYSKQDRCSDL

SMILES: C(=Nc1c2c(nc3ccccc13)C1CCC2C1)c1ccccc1 (stereo not shown) [1,4-Methano-N-(phenylmethylene)-1,2,3,4-tetrahydro-9-acridinamine]
- IC50 [1]: 12 µM
- % of Animals with Scopolamine Induced Memory Deficit Reversal ([2]; mice, dose 0.31 mg/kg of body weight, s.c, retest 24 hours later): 27%

SMILES: CNC(=O)Oc1ccc2c(c1)[C@]1(C)CCN(C)[C@@H]1N2C [Physostigmine, reference compound]
- % of Animals with Scopolamine Induced Memory Deficit Reversal ([2]; mouse, in vivo, 0.31 mg/kg): 20%

SMILES: FC(F)(F)c1ccc2c(N=Cc3ccccc3)c3c(nc2c1)C1CCC3C1 (stereo not shown) [1,4-Methano-N-(phenylmethylene)-6-trifluoromethyl-1,2,3,4-tetrahydro-9-acridinamine]
- IC50 [1]: 22 µM
